Laboratory results as given in patent US12391680B2, “Compounds and compositions for the treatment of cystic fibrosis” (FONDAZIONE ISTITUTO ITALIANO DI TECNOLOGIA, priority 2019, dated 2025).

These compounds were tested against mutant CFTR (Homo sapiens, UniProt P13569) (assay: Fluorescence assay for CFTR activity (halide-sensitive YFP, HS-YFP)). Settings: CFBE41o- and FRT cells with stable expression of mutant CFTR.
Type: cell-based
Method: Mutant CFTR activity was determined with the functional assay based on the halide-sensitive yellow fluorescent protein, HS—YFP (Galietta et al., FEBS Lett 499:220-224, 2001). CFBE41o- and FRT cells with stable expression of mutant CFTR and HS—YFP were plated on clear-bottom 96-well black microplates (Code 3603, Corning Life Sciences) at a density of 50,000 cells/well and kept at 37° C. in 5% CO2 for 24 hours.
For the corrector assay, cells were treated for further 24 hours with test compounds, vehicle (DMSO), or the positive control VX-809. After treatment, the culture medium was removed and cells in each well were stimulated for 30 min at 37° C. with 60 μL PBS (containing 137 mM NaCl, 2.7 mM KCl, 8.1 mM Na2HPO4, 1.5 mM KH2PO4, 1 mM CaCl2, and 0.5 mM MgCl2) plus forskolin (20 μM) and genistein (50 μM).
For determination of potentiator activity on F508del-CFTR, cells were incubated for 24 hours at 27° C. to allow trafficking of the mutant protein to plasma membrane. Cells were then stimulated with for 30 min with PBS containing forskolin (20 μM) plus the compound to be tested at the desired concentration. For determination of potentiator activity on G551D-CFTR or G1349D-CFTR, cells were directly stimulated with forskolin plus test compound without previous incubation at low temperature. At the time of assay, microplates carrying CFBE41o- or FRT cells were transferred to microplate readers (BMG Labtech) equipped with high-quality excitation (HQ500/20×: 500±10 nm) and emission (HQ535/30M: 535±15 nm) filters for YFP (Chroma Technology). The assay consisted of a continuous 14 s fluorescence reading with 2 s before and 12 s after injection of an iodide-containing solution (165 μL of a modified PBS containing I^− instead of Cl^−; final I^− concentration in the well: 100 mM). Data were normalized to the initial background-subtracted fluorescence. Enhanced CFTR activity, induced by correctors and/or potentiators, results in accelerated I^− influx that in turn causes faster HS—YFP quenching (Pedemonte et al., Mol Pharmacol 68:1736-1746, 2005; Pedemonte et al., J Clin Invest 115:2564-2571, […]). To determine fluorescence quenching rate associated with I^− influx, the final 10 s of data for each well were fitted with an exponential function to extrapolate initial slope (dF/dt).
EC50 obtained are illustrated in Table 1 wherein+: EC50>2 μM; ++: 1.0 μM <EC50<2 μM; +++: EC50<1 μM.

Sequence of mutant CFTR (P13569 with tags, fused parts or gaps DEL508-508): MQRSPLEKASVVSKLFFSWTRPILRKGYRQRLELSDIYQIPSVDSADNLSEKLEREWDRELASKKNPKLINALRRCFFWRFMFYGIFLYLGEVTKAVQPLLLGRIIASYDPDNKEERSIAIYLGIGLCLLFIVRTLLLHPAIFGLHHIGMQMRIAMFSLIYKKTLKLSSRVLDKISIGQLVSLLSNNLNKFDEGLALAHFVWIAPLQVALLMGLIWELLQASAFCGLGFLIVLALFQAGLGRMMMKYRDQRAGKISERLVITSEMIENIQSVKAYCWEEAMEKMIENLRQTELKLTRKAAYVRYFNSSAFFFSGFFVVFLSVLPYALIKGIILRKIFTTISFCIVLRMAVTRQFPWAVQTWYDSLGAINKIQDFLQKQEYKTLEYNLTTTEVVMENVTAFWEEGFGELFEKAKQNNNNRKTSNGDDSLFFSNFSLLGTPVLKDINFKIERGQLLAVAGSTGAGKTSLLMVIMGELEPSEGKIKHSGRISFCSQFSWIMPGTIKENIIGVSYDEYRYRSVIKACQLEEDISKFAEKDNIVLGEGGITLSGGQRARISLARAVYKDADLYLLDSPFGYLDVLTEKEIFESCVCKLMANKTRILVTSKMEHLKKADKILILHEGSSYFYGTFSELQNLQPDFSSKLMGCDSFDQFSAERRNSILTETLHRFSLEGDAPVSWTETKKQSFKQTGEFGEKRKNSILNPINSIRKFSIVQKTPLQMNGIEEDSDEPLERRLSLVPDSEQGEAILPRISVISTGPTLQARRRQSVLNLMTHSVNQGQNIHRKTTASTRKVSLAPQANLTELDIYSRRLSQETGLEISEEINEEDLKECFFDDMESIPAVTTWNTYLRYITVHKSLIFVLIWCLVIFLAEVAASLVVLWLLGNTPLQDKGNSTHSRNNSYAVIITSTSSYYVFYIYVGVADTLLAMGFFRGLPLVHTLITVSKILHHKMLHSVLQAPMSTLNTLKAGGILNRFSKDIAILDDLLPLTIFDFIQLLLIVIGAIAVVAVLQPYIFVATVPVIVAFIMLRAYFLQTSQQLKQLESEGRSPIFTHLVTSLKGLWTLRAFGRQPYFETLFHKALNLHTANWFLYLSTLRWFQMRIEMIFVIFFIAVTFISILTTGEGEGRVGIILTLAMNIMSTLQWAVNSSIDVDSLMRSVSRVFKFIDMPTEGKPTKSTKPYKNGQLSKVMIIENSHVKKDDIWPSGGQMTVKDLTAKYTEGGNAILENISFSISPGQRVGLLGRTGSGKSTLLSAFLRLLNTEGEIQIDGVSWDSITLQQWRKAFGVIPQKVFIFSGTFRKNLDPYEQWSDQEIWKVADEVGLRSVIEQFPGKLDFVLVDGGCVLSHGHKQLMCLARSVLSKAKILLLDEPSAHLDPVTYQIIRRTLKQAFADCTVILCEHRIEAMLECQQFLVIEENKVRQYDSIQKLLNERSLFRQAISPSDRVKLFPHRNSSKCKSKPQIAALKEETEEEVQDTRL

Row | EC50 | Compound
1 | > 2000 nM | NC(=O)c1sc2ccccc2c1C1CN(S(=O)(=O)c2ccc(F)c(C(F)(F)F)c2)CCO1 (racemic) [compound 038, rac-3-[4-[4-fluoro-3-(trifluoromethyl)phenyl]sulfonylmorpholin-2-yl]benzothiophene-2-carboxamide]
2 | 1000 to 2000 nM | NC(=O)c1sc2ccccc2c1C1CN(S(=O)(=O)c2ccc(Cl)cc2)CCO1 (racemic) [compound 040, rac-3-[4-(4-chlorophenyl)sulfonylmorpholin-2-yl]benzothiophene-2-carboxamide]
3 | 1000 to 2000 nM | COc1cc(S(=O)(=O)N2CCOC(c3c(C(N)=O)sc4ccccc34)C2)ccc1C(F)(F)F (racemic) [compound 045, rac-3-[4-[3-methoxy-4-(trifluoromethyl)phenyl]sulfonylmorpholin-2-yl]benzothiophene-2-carboxamide]
4 | < 1000 nM | COc1ccc(S(=O)(=O)N2CCOC(c3c(C(N)=O)sc4ccccc34)C2)cc1C(F)(F)F (racemic) [compound 046, rac-3-[4-[4-methoxy-3-(trifluoromethyl)phenyl]sulfonylmorpholin-2-yl]benzothiophene-2-carboxamide]
5 | > 2000 nM | COc1ccc(S(=O)(=O)N2CCOC(c3c(C(N)=O)sc4ccccc34)C2)cc1[N+](=O)[O-] (racemic) [compound 047, rac-3-[4-(4-methoxy-3-nitro-phenyl)sulfonylmorpholin-2-yl]benzothiophene-2-carboxamide]
6 | > 2000 nM | COc1cccc(S(=O)(=O)N2CCOC(c3c(C(N)=O)sc4ccccc34)C2)c1 (racemic) [compound 048, rac-3-[4-(3-methoxyphenyl)sulfonylmorpholin-2-yl]benzothiophene-2-carboxamide]
7 | > 2000 nM | NC(=O)c1sc2ccccc2c1C1CN(S(=O)(=O)c2cccc(OC(F)(F)F)c2)CCO1 (racemic) [compound 049, rac-3-[4-[3-(trifluoromethoxy)phenyl]sulfonylmorpholin-2-yl]benzothiophene-2-carboxamide]
8 | > 2000 nM | COc1ccccc1S(=O)(=O)N1CCOC(c2c(C(N)=O)sc3ccccc23)C1 (racemic) [compound 050, rac-3-[4-(2-methoxyphenyl)sulfonylmorpholin-2-yl]benzothiophene-2-carboxamide]
9 | < 1000 nM | NC(=O)c1sc2ccccc2c1C1CN(S(=O)(=O)c2ccc(-c3ccccc3)cc2)CCO1 (racemic) [compound 051, rac-3-[4-(4-phenylphenyl)sulfonylmorpholin-2-yl]benzothiophene-2-carboxamide]
10 | > 2000 nM | NC(=O)c1sc2ccccc2c1C1CN(S(=O)(=O)c2ccc3ccccc3c2)CCO1 (racemic) [compound 052, rac-3-[4-(2-naphthylsulfonyl)morpholin-2-yl]benzothiophene-2-carboxamide]
11 | > 2000 nM | COc1ccc(S(=O)(=O)N2CCOC(c3c(C(N)=O)sc4ccccc34)C2)cc1F (racemic) [compound 053, rac-3-[4-(3-fluoro-4-methoxy-phenyl)sulfonylmorpholin-2-yl]benzothiophene-2-carboxamide]
12 | > 2000 nM | COc1ccc(S(=O)(=O)N2CCOC(c3c(C(N)=O)sc4ccccc34)C2)cc1OC (racemic) [compound 054, rac-3-[4-(3,4-dimethoxyphenyl)sulfonylmorpholin-2-yl]benzothiophene-2-carboxamide]
13 | < 1000 nM | CN1CCOc2cc(S(=O)(=O)N3CCOC(c4c(C(N)=O)sc5ccccc45)C3)ccc21 (racemic) [compound 057, rac-3-[4-[(4-methyl-2,3-dihydro-1,4-benzoxazin-7-yl)sulfonyl]morpholin-2-yl]benzothiophene-2-carboxamide]
14 | > 2000 nM | NC(=O)c1sc2ccccc2c1C1CN(S(=O)(=O)C2CCOCC2)CCO1 (racemic) [compound 058, rac-3-[4-tetrahydropyran-4-ylsulfonylmorpholin-2-yl]benzothiophene-2-carboxamide]
15 | > 2000 nM | COCCS(=O)(=O)N1CCOC(c2c(C(N)=O)sc3ccccc23)C1 (racemic) [compound 059, rac-3-[4-(2-methoxyethylsulfonyl)morpholin-2-yl]benzothiophene-2-carboxamide]
16 | 1000 to 2000 nM | NC(=O)c1sc2ccccc2c1C1CN(S(=O)(=O)c2ccc(S(F)(F)(F)(F)F)cc2)CCO1 (racemic) [compound 060, rac-3-[4-[4-(pentafluoro-lambda6-sulfanyl)phenyl]sulfonylmorpholin-2-yl]benzothiophene-2-carboxamide]
17 | > 2000 nM | CCCCS(=O)(=O)N1CCOC(c2c(C(N)=O)sc3ccccc23)C1 (racemic) [compound 061, rac-3-[4-butylsulfonylmorpholin-2-yl]benzothiophene-2-carboxamide]
18 | > 2000 nM | N#Cc1cccc(S(=O)(=O)N2CCOC(c3c(C(N)=O)sc4ccccc34)C2)c1 (racemic) [compound 062, rac-3-[4-(3-cyanophenyl)sulfonylmorpholin-2-yl]benzothiophene-2-carboxamide]
19 | > 2000 nM | COC(=O)c1ccc(S(=O)(=O)N2CCOC(c3c(C(N)=O)sc4ccccc34)C2)cc1 (racemic) [compound 063, rac-methyl 4-[2-(2-carbamoylbenzothiophen-3-yl)morpholin-4-yl]sulfonylbenzoate]
20 | > 2000 nM | CC(C)(C)OC(=O)N1CCC(S(=O)(=O)N2CCOC(c3c(C(N)=O)sc4ccccc34)C2)CC1 (racemic) [compound 064, rac-tert-butyl 4-[2-(2-carbamoylbenzothiophen-3-yl)morpholin-4-yl]sulfonylpiperidine-1-carboxylate]
21 | > 2000 nM | NC(=O)c1sc2ccccc2c1C1CN(S(=O)(=O)c2ccc([N+](=O)[O-])cc2)CCO1 (racemic) [compound 065, rac-3-[4-(4-nitrophenyl)sulfonylmorpholin-2-yl]benzothiophene-2-carboxamide]
22 | > 2000 nM | NC(=O)c1sc2ccccc2c1C1CN(S(=O)(=O)c2ccccc2C(F)(F)F)CCO1 (racemic) [compound 066, rac-3-[4-[2-(trifluoromethyl)phenyl]sulfonylmorpholin-2-yl]benzothiophene-2-carboxamide]
23 | > 2000 nM | NC(=O)c1sc2ccccc2c1C1CN(S(=O)(=O)c2ccccc2OC(F)(F)F)CCO1 (racemic) [compound 067, rac-3-[4-[2-(trifluoromethoxy)phenyl]sulfonylmorpholin-2-yl]benzothiophene-2-carboxamide]
24 | > 2000 nM | NC(=O)c1sc2ccccc2c1C1CN(S(=O)(=O)c2ccc(O)cc2)CCO1 (racemic) [compound 068, rac-3-[4-(4-hydroxyphenyl)sulfonylmorpholin-2-yl]benzothiophene-2-carboxamide]
25 | < 1000 nM | CC(C)Oc1ccc(S(=O)(=O)N2CCOC(c3c(C(N)=O)sc4ccccc34)C2)cc1 (racemic) [compound 069, rac-3-[4-(4-isopropoxyphenyl)sulfonylmorpholin-2-yl]benzothiophene-2-carboxamide]
26 | < 1000 nM | NC(=O)C1=C(C2CN(S(=O)(=O)c3ccc(C(F)(F)F)c(F)c3)CCO2)c2ccccc2S1(=O)=O (racemic) [compound 074, rac-1,1-dioxo-3-[4-[3-fluoro-4-(trifluoromethyl)phenyl]sulfonylmorpholin-2-yl]benzothiophene-2-carboxamide]
27 | > 2000 nM | Cc1cc(S(=O)(=O)N2CCO[C@@H](c3c(C(N)=O)sc4ccccc34)C2)ccc1F (single isomer, unassigned) [compound 014]
